Values joined by “and” are separate entries in the source; they are usually repeats but may differ in a detail not shown here. Identical values can stand only once. Like-named read-outs stand apart in the source and are kept apart here.
Experiments:
[1] = Aqueous solubility of sodium beta-keto salt prodrug of Nabumetone (Example 13b); assay type: physicochemical
Experimental: 12.1 mg of the of ethyl-5-(6-methoxy-2-naphthyl)-beta-keto-pentanoate product prepared and purified as in Example 8 was mixed with 25 mL of a 0.5 M aqueous solution NaOH and homogenised on a vortex mixer. […] 15 minutes after preparation of the sample, the sample was transferred to an oil bath set at 37° C. with continuous gentle magnetic stirring, and kept there for 3.5 hours. Crystalline flakes remained in the sample at the end of the 3.5 hours heat-treatment, and the sample was thereafter centrifuged and the clear liquid above the sedimented crystals was analysed by HPLC as described above.
After storage around one hour at room temperature a fraction of the sample was then filtered twice through a 0.2 μm filter (Whatman, 0.2 μm PS) fitted to a syringe to give a clear solution. 200 μL of this filtered solution was transferred, in a tightly closed vessel, to an oil bath at 95° C. and kept at this temperature for about 5 hours to bring about quantitative decarboxylation of the labile, dissolved beta-keto carboxylic salt prodrug derivative of Nabumetone.
The heated sample was then mixed with 35 mL of mobile phase (see Example 1) whereby a few solid crystals (comprising Nabumetone) was seen to not dissolve. In order to assure a correct sampling for HPLC analysis, 5 mL of the 35 mL sample was filtered through a 0.2 μm filter, after the whole 35 mL sample had been pH adjusted to 4.21 by 300 μL 0.1 M HCl+100 μL 1 M HCl, to assure that the pH of the sample was close to the pH of the mobile phase itself (pH 4.30). The filtered solution was thereafter analysed by HPLC and found to contain 0.777 mg Nabumetone per liter. If recalculated to the corresponding concentration of nabumetone equivalents in the form of the beta-keto salt prodrug present in dissolved form in the filtered 200 μl sample that was subsequently heat-treated to form Nabumetone above, the obtained concentration corresponds to a Nabumetone concentration of 136.7 mg Nabumetone per liter in the clear aqueous solution, at room temperature, before the heat-treatment at 95° C.

[2] = Sustained release of Nabumetone from beta-keto sodium salt prodrug in phosphate buffer at blood pH and 37° C.; assay type: physicochemical; conditions: phosphate buffer pH about 7.4, 37° C.
Experimental: 20.91 mg of the product synthesised as described in Example 8 (however in this case not purified by the chromatographic step in Example 8) was mixed with 1 ml 0.5 M NaOH at room temperature, whereby a portion of the sample was dissolved. After 30 minutes the mixture was placed in an oven at 37° C., and 10 μl samples was taken at regular intervals, diluted with 1 ml mobile phase (as in Example 1), and analyzed by HPLC, using UV-detection at 240 nm. 3.0 hours after initiation of the saponification reaction, the precursor (retention time 4.6 min) could no longer be detected, and the precursor peak was replaced by a peak from the intermediary beta-keto salt prodrug (retention time 2.3 minutes). At this point in time, a solution of 9 ml H2O and 0.0762 g NaH2PO4 was added to the sample, in order to create a NaH2PO4/Na2HPO4 pH buffer by neutralization of the NaOH remaining in the sample. […] The sample was again placed in the oven at 37° C. and the decarboxylation of the beta-keto salt in solution, gradually giving the commercially available drug Nabumetone, was followed by HPLC by taking 100 μl samples at regular intervals and diluting them with 1 ml mobile phase (see Example 1 above) before injection on the HPLC. It can be seen from the data that Nabumetone was continuously released into the solution via the spontaneous, non-enzymatic decarboxylation of the dissolved prodrug sodium salt, over a period of more than 120 hours. The half-life of the prodrug was estimated to be about 70 hours in this medium and under the conditions used.

[3] = pig, 2 mM, pH 6.63
[4] = cited from earlier work
[5] = Sustained release of acetophenone in vitro in model blood electrolyte solution at 37° C.; assay type: physicochemical; conditions: formed from sodium benzoyl acetate, model blood electrolyte solution pH 7.4
Experimental: A 0.2 M solution of ethyl benzoyl acetate (90%, Sigma Aldrich) in 0.5 M NaOH (aq) was prepared at room temperature and stirred for typically 5-24 hours, still at room temperature. After this time a major part of the ethyl benzoyl acetate had been transformed into dissolved sodium benzoyl acetate, as evidenced by monitoring the reaction by analysis of samples by reversed phase HPLC. Some acetophenone and remaining ethyl benzoyl acetate were typically present in the samples, but in minor amounts. The method employed a C8 column with an inner diameter of 150×4.6 mm and 5 micron particles. The mobile phase consisted of 400 ml deionized water+600 ml acetonitrile+0.196 g H3PO4 (85%)+2.760 g NaH2PO4*H2O. The flow rate was set to 1.0 mL/min and UV detection at 254 nm was employed for analysis of the compounds ethylbenzoylacetate (precursor), benzoylacetate (model prodrug) and acetophenone (model drug).
Ethyl benzoyl acetate was saponified according to the description in Example 1, and after 7 hours a solution containing about 0.2 M of the sodium salt of benzoyl acetate was obtained.

Q: With “5-(6-methoxy-2-naphthyl)-beta-keto-pentanoate [Nabumetone beta-keto salt prodrug]” as the compound, how does the “Solubility (mg/L, as Nabumetone equivalents)” value ([1]; clear aqueous solution (0.5 M NaOH) at room temperature, 0.2 μm filtered, before heat-treatment) read?
A: Its value is 136.7 mg/L.

Q: What about the “Area at retention time 2.3 minutes characteristic for detection of the beta-keto anion” value ([1]; clear liquid after 3.5 h at 37° C. in 0.5 M NaOH, 200 μL diluted with 5.0 ml mobile phase) of the same compound?
A: The value was 36218 arbitrary units.

Q: And the “half-life of the prodrug (estimated)” value [2]?
A: The value was “about 70 hours”.

Q: And the “period over which Nabumetone was continuously released into the solution” value [2]?
A: Its value is “more than 120 hours”.

Q: What about the “Nabumetone beta-keto salt prodrug (HPLC area @ retention time 2.3 min)” value (from here on “Nabumetone beta-keto salt prodrug”) ([2]; 3.25 h after initiation of saponification) of the same compound?
A: The value was 28341.

Q: What about the “Nabumetone beta-keto salt prodrug” value ([2]; 5.1 h after initiation of saponification) of the same compound?
A: Its value is 27144.

Q: And the “Nabumetone beta-keto salt prodrug” value ([2]; 21.45 h after initiation of saponification)?
A: Its value is 22542.

Q: And the “Nabumetone beta-keto salt prodrug” value ([2]; 24.25 h after initiation of saponification)?
A: Its value is 24102 and 21914.

Q: And the “Nabumetone beta-keto salt prodrug” value ([2]; 28.15 h after initiation of saponification)?
A: The value was 19536.

Q: And the “Nabumetone beta-keto salt prodrug” value ([2]; 45.4 h after initiation of saponification)?
A: Its value is 18202.

Q: And the “Nabumetone beta-keto salt prodrug” value ([2]; 50 h after initiation of saponification)?
A: Its value is 18123.

Q: And the “Nabumetone beta-keto salt prodrug” value ([2]; 78 h after initiation of saponification)?
A: The value was 9528.

Q: What about the “Nabumetone beta-keto salt prodrug” value ([2]; 117 h after initiation of saponification) of the same compound?
A: The value was 9760.

Q: And the “Nabumetone beta-keto salt prodrug” value ([2]; 194 h after initiation of saponification)?
A: The value was 1827.

Q: Which Acetophenone concentration ([3]; 0.25 h) does the source give for CC(=O)c1ccccc1 [acetophenone] here?
A: The Acetophenone concentration was 0.09 mM.

Q: And the Acetophenone concentration ([3]; 1.33 h)?
A: The Acetophenone concentration was 0.32 mM.

Q: What about the Acetophenone concentration ([3]; 2.58 h) of the same compound?
A: The Acetophenone concentration was 0.50 mM.

Q: And the Acetophenone concentration ([3]; 4.75 h)?
A: Its Acetophenone concentration is 0.866 mM.

Q: And the Acetophenone concentration ([3]; 5.58 h)?
A: The Acetophenone concentration was 0.866 mM.

Q: What about the Acetophenone concentration ([3]; 6.58 h) of the same compound?
A: The Acetophenone concentration was 0.921 mM.

Q: What about the Acetophenone concentration ([3]; 22.58 h) of the same compound?
A: The Acetophenone concentration was 1.34 mM.

Q: And the Acetophenone concentration ([3]; -0.17 h)?
A: Its Acetophenone concentration is 0.07 mM.

Q: And the Solubility ([4]; tabulated solubility)?
A: The Solubility was 46 mM.

Q: What about the “Concentration of acetophenone (model drug) in sample” value (from here on “Concentration of acetophenone”) ([5]; Time @ 37° C. 0.42) of the same compound?
A: The value was 160 µM.

Q: And the “Concentration of acetophenone” value ([5]; Time @ 37° C. 2.25)?
A: Its value is 290 µM.

Q: What about the “Concentration of acetophenone” value ([5]; Time @ 37° C. 3.17) of the same compound?
A: The value was 380 µM.

Q: What about the “Concentration of acetophenone” value ([5]; Time @ 37° C. 4.17) of the same compound?
A: Its value is 480 µM.

Q: And the “Concentration of acetophenone” value ([5]; Time @ 37° C. 6.17)?
A: The value was 400 µM.

Q: What about the “Concentration of acetophenone” value ([5]; Time @ 37° C. 8.25) of the same compound?
A: Its value is 630 µM.

Q: And the “Concentration of acetophenone” value ([5]; Time @ 37° C. 10.17)?
A: The value was 730 µM.

Q: And the “Concentration of acetophenone” value ([5]; Time @ 37° C. 12.17)?
A: The value was 730 µM.

Q: And the “Concentration of acetophenone” value ([5]; Time @ 37° C. 13.92)?
A: Its value is 900 µM.

Q: What about the “Concentration of acetophenone” value ([5]; Time @ 37° C. 17.92) of the same compound?
A: The value was 920 µM.

Q: What about the “Concentration of acetophenone” value ([5]; Time @ 37° C. 21.17) of the same compound?
A: The value was 1080 µM.

Q: And the “Concentration of acetophenone” value ([5]; Time @ 37° C. 24.92)?
A: Its value is 950 µM.

Q: What about the “Concentration of acetophenone” value ([5]; Time @ 37° C. 31.33) of the same compound?
A: The value was 1110 µM.

Q: What about the “Concentration of acetophenone” value ([5]; Time @ 37° C. 48.75) of the same compound?
A: The value was 1550 µM.

Q: What about the “Concentration of acetophenone” value ([5]; Time @ 37° C. 76.33) of the same compound?
A: Its value is 1890 µM.

Q: Which Solubility ([4]; at 37° C., Okimotoa et al., 1999) does the source give for C[C@]12CC[C@H]3[C@@H](CCC4=CC(=O)CC[C@@]43C)[C@@H]1CC[C@@H]2O [testosterone, (8R,9S,10R,13S,14S,17S)-17-hydroxy-10,13-dimethyl-1,2,6,7,8,9,11,12,14,15,16,17-dodecahydrocyclopenta[a]phenanthren-3-one] here?
A: The Solubility was 39 µg/mL.

Source: patent US20120065179A1, “PRODRUG COMPRISING BETA-KETO CARBOXYLIC ACID, BETA-KETO CARBOXYLIC ACID SALT OR BETA-KETO CARBOXYLIC ACID ESTER FOR DRUG DELIVERY” (YKI, Ytemiska Institutet AB, priority 2009, published 2012)
